Tested on: panel of human cancer cell lines
Assay: MTT cell cytotoxicity assay, cell line panel
Format: cell-based
Conditions: Homo sapiens; remaining cell lines (other than SQ20B, OVCAR3, A2780-1A9)
Method: Cell survival was determined using the MTT assay (3-[4,5-dimethylthiazol-2-yl]-2,5-diphenyltetrazolium bromide; Sigma, Saint-Quentin Fallavier, France). The conversion of yellow water-soluble tetrazolium MTT into purple insoluble formazan is catalyzed by mitochondrial dehydrogenases and used to estimate the number of viable cells. In brief, cells were seeded in 96-well tissue culture plates at a density of 2×10^3 cells/well. After 72 h drug exposure and 48 h wash-out, cells were incubated with 0.4 mg/ml MTT for 4 hours at 37° C. After incubation, the supernatant was discarded, insoluble formazan precipitates were dissolved in 0.1 ml of DMSO and the absorbance was measured at 560 nm by use of a microplate reader (Thermo, France). […] IC50's were determined as the halves of maximal inhibitory drug concentration for each cell line.
The antiproliferative effects of OTX-008 and anginex were assessed using MTT assay in a panel of human cancer cell lines of human origins expressing various levels of Lgals-1 mRNA and galectin-1 protein expressions (Supplementary Table 1). […] No correlation between mRNA expressions of galectin-2, galectin-3, and galectin-8 as well as semaphorin-3A, semaphorin-3B, neuropilin-1, VEGFR1-3, VEGFA-D, and PDGFRa&P3 and sensitivity to OTX-008 were detected in the panel.

SMILES: CN(C)CCNC(=O)COc1c2cccc1Cc1cccc(c1OCC(=O)NCCN(C)C)Cc1cccc(c1OCC(=O)NCCN(C)C)Cc1cccc(c1OCC(=O)NCCN(C)C)C2 [OTX-008]
- GI50: > 9 µM

From patent US20140243415A1, “COMPOUNDS INHIBITING GALECTIN-1 EXPRESSION, CANCER CELL PROLIFERATION, INVASION, AND TUMORIGENESIS” (ONCOETHIX SA, priority 2011, published 2014)
